Biological target: BRD4-BD1 (Homo sapiens (Human), UniProt O60885)
Test: BRD4-H4 Tetraacetylated Peptide Inhibition AlphaScreen
Type: binding
Conditions: GST-BRD4-BD1 (aa 44-168), biotinylated Acetyl-Histone H4 peptide
Experimental: Compounds are diluted in serial dilution 1:5 in assay buffer from 10 mM stock in DMSO (100 μM start concentration) in white OptiPlate-384 (PerkinElmer). […] Subsequently, 6 μl of premixed AlphaLISA Glutathione Acceptor Beads and AlphaScreen Streptavidin Donor Beads from PerkinElmer (in assay buffer at a concentration of 10 μg/ml each) are added and the samples are incubated for 30 min at RT in the dark (shaking 300 rpm). Afterwards, the signal is measured in a PerkinElmer Envision HTS Multilabel Reader using the AlphaScreen protocol from PerkinElmer. […] Negative control values are entered as low basis value when using the software GraphPad Prism for calculations. Furthermore, a positive control (probe molecule JQ1+ with protein/peptide mix) is pipetted. Determination of IC50 values are carried out using GraphPad Prism 3.03 software (or updates thereof).

| IC50 [nM] | SMILES |
| --- | --- |
| 62 | COC[C@H](C)n1c(-c2cc(C)c(=O)n(C)n2)nc2cnc(N3CCOC[C@@H]3C)cc21 [II-30] |
| 40 | Cc1cc(-c2nc3cnc(N4CCOC[C@@H]4C)cc3n2[C@@H](C)c2ccccc2)cn(C)c1=O [II-31] |
| 105 | Cn1cc(-c2nc3cnc(N4CCOCC4)cc3n2Cc2ccccc2)cc(Cl)c1=O [II-32] |
| 169 | Cc1cc(-c2nc3cnc(C(C)C)cc3n2[C@@H](C)c2ccccn2)cn(C)c1=O [II-33] |
| 120 | Cc1cc(-c2nc3cnc(C4CCOCC4)cc3n2[C@@H](C)c2ccccn2)cn(C)c1=O [II-34] |
| 211 | Cc1cc(-c2nc3cnc(C4=CCOCC4)cc3n2C(C)c2ccccn2)cn(C)c1=O (stereo not shown) [II-35] |
| 650 | Cc1cc(-c2nc3cnc(Cl)cc3n2C(C)c2ccccn2)cn(C)c1=O (stereo not shown) [II-36] |
| 172 | Cc1cc(-c2nc3cnc(N4CCOCC4)cc3n2C(C)c2ccccn2)cn(C)c1=O (stereo not shown) [II-37] |
| 205 | Cc1cc(-c2nc3cnc(OC(C)C)cc3n2[C@@H](C)c2ccccn2)cn(C)c1=O [II-38] |
| 211 | Cc1cc(-c2nc3cnc(OC4CCOC4)cc3n2[C@@H](C)c2ccccn2)cn(C)c1=O (stereo partly shown) [II-39] |
| 295 | Cc1cc(-c2nc3cnc(C4=CCCCO4)cc3n2C(C)c2ccccn2)cn(C)c1=O (stereo not shown) [II-40] |
| 1200 | Cc1c(-c2nc3cnc(N4CCN(C)CC4)cc3n2Cc2ccccc2)cn(C)c(=O)c1C [II-41] |
| 35 | Cc1cc(-c2nc3cnc(N)cc3n2[C@@H](C)c2ccccc2)cn(C)c1=O [II-42] |
| 50 | Cc1cc(-c2nc3cnc(N4CCOC[C@@H]4C)cc3n2C(C)CC2CC2)cn(C)c1=O (stereo partly shown) [II-43] |
| 188 | CCOc1cc(=O)n(C)cc1-c1nc2cnc(C3CCOCC3)cc2n1[C@@H](C)c1ccccc1 [II-44] |
| 95 | Cc1cc(-c2nc3cnc(C4CCOCC4)cc3n2[C@H](C)c2ccccc2)cn(C)c1=O [II-45] |
| 697 | CN1CCN(c2ccc3nc(-c4ccc(=O)n(C)c4)n(Cc4ccccc4)c3n2)CC1 [III-1, 5-[3-Benzyl-5-(4-methyl-piperazin-1-yl)-3H-imidazo[4,5-b]pyridin-2-yl]-1-methyl-1H-pyridin-2-one] |
| 1780 | Cn1cc(-c2nc3cccnc3n2Cc2ccccc2)ccc1=O [III-2] |
| 45 | Cc1cc(-c2nc3cccnc3n2Cc2ccccc2)cn(C)c1=O [III-3] |
| 118 | Cc1cc(-c2nc3ccc(OC(C)C)nc3n2[C@@H](C)c2ccccn2)nn(C)c1=O [III-4] |

| IC50 [nM] | SMILES |
| --- | --- |
| 117 | Cc1cc(-c2nc3ccc(OC(C)C)nc3n2[C@@H](C)c2ccccc2)nn(C)c1=O [III-5] |
| 108 | CCCOc1ccc2nc(-c3cc(C)c(=O)n(C)c3)n([C@@H](C)c3ccccc3)c2n1 [III-6] |
| 220 | Cc1cc(-c2nc3ccc(OC(C)C)nc3n2C(C)c2ccccn2)cn(C)c1=O (stereo not shown) [III-7] |
| 217 | Cc1cc(-c2nc3ccc(OC4CCN(C)CC4)nc3n2C(C)c2ccccn2)cn(C)c1=O (stereo not shown) [III-9] |
| 313 | Cc1cc(-c2nc3ncccc3n2Cc2ccccc2)cn(C)c1=O [IV-1] |
| 218 | CC1CC(=O)NN=C1c1ccc2c(c1)nc(-c1ccc(=O)n(C)c1)n2Cc1ccccc1 (stereo not shown) [IV-2] |
| 188 | Cc1cc(-c2nc3cc(Cl)cnc3n2Cc2ccccc2)cn(C)c1=O [IV-3] |
| 60 | Cc1cc(-c2nc3ccncc3n2Cc2ccccc2)cn(C)c1=O [IV-4] |
| 32 | Cc1cc(-c2nc3cc(N4CCOCC4)cnc3n2Cc2ccccc2)cn(C)c1=O [IV-5] |
| 23 | Cc1cc(-c2nc3cc(N4CCN(C)CC4)cnc3n2Cc2ccccc2)cn(C)c1=O [IV-6] |
| 16 | Cc1cc(-c2nc3cc(C4CCOCC4)cnc3n2Cc2ccccc2)cn(C)c1=O [IV-7] |
| 70 | Cc1cnc2c(c1)nc(-c1cc(C)c(=O)n(C)c1)n2Cc1ccccc1 [IV-8] |
| 119 | Cc1cc(-c2nc3cc(S(=O)(=O)N(C)C)cnc3n2Cc2ccccc2)cn(C)c1=O [IV-9] |
| 109 | Cc1cc(-c2nc3cccc(C)c3n2Cc2ccccn2)cn(C)c1=O [IV-10] |
| 12 | Cc1cc(-c2nc3cnc(N4CCOC[C@@H]4C)nc3n2[C@@H](C)c2ccccc2)cn(C)c1=O [IV-11] |
| 38 | Cc1cc(-c2nc3cc(N)cnc3n2Cc2ccccc2)cn(C)c1=O [IV-12] |
| 4810 | Cc1cc(-c2nc3cc(Cl)c(Cl)cc3n2Cc2ccc(Cl)c(Cl)c2)cn(C)c1=O [IV-13] |
| 50 | Cc1cc(-c2nc3cnc(N4CCOCC4)nc3n2Cc2ccccc2)cn(C)c1=O [IV-14] |
| 17 | Cc1cc(-c2nc3cnc(N4CCOCC4)nc3n2[C@@H](C)c2ccccc2)cn(C)c1=O [IV-15] |
| 136 | CNc1cc(-c2nc3ccccc3n2Cc2ccccc2)cn(C)c1=O [VI-1, 5-(1-benzyl-1H-1,3-benzodiazol-2-yl)-1-methyl-3-(methylamino)-1,2-dihydropyridin-2-one] |
